The subject of this test is LG0703-F948-PDC complex spheroid viability. The test can be described thus: Anticancer human tumor LG0703-F948-PDC patient-derived lung adenocarcinoma cell line growth inhibition [RAS]. The following applies: for viability, T/C: stronger effect = lower value. The source says:
RAS pathway inhibitors in Combinations in Complex Spheroids
A high-throughput screen of multi-cell type tumor spheroids was designed to identify active combinations of RAS pathway inhibitors and targeted small molecules. Complex spheroids include a stromal component modeled by human endothelial cells (HUVEC) and fibroblasts modeled by human mesenchymal stem cells (MSCs). The concentration ranges selected for each drug and investigational agent were based upon clinically achievable concentrations if the clinical Cmax of the agent was known.
Compounds. The drugs and investigational agents: abemaciclib (NSC768073), cobimetinib (NSC768068), divarasib (GDC6063, NSC841802), docetaxel (NSC628503), GDC-1971 (RLY-1971, NSC841576), gemcitabine (NSC613327), inavolisib (NSC800729), ipatasertib (NSC767898), KB-0742 (NSC834161), MRTX-1133 (NSC836407), osimertinib (NSC779217), RMC-4630 (NSC839698), RMC-6236 (NSC851965), RMC-6291 (NSC852671), Ro-3306 (NSC812927), sapanisertib (NSC764658), SN-38 (NSC673596), staurosporine (NSC755774), SY5609 (NSC837396), and tovorafenib (DAY101, NSC766906), were obtained from the National Cancer Institute (NCI) Developmental Therapeutics Program Chemical Repository. The FDA-approved anticancer drug set is available from the NCI Developmental Therapeutics Program. […] The stock solutions were prepared in dimethyl sulfoxide (DMSO, Sigma-Aldrich, St. Louis, MO, cat. D2650) at 800-fold the tested concentration and stored at -70 degrees C prior to their use. All drugs and investigational agents were tested over a range starting from a high concentration at or near the clinical Cmax and decreasing in half-log increments. If the clinical Cmax for an agent had not been determined, the highest concentration tested was 10 microM.
Cell Culture. All cells were maintained in an incubator at 37 degrees C and 5% CO2 with 95% humidity. The PDC lines were cultured according to standard operating procedures established by the NCI PDMR. All PDCs were thawed and cultured in Matrigel-coated flasks prepared with a working solution of 1X Ham's F-12 nutrient mix, without supplementation (Invitrogen, Waltham, MA, cat. 11765054), 100 U/mL penicillin-streptomycin (Invitrogen, cat. 15140122), and 2.5% Matrigel (Corning Inc., Corning, NY, cat. 354248) for the first three passages. The 362531-283-R-J2-PDC and 782815-120-R-J1-PDC lines were cultured in 6C/Colon 1B media, which includes advanced DMEM/F-12 (Thermo Fisher Scientific, cat. 12634028), 10 mM HEPES (Thermo Fisher Scientific, cat. 15630080), 1X GlutaMAX supplement (Thermo Fisher Scientific, cat. 35050061), 0.1 mg/mL primocin (InvivoGen, San Diego, CA, cat. ant-pm-2), 10% defined fetal bovine serum, heat inactivated (HyClone Laboratories Inc., Logan, UT, cat. SH30070.03HI), 50% L-WRN conditioned media (ATCC, cat. CRL-3276), 1.25 mM N-Acetyl-L-cysteine (Sigma-Aldrich, cat. A9165), 10 mM nicotinamide (Sigma-Aldrich, cat. N0636), 1X B-27 supplement (Thermo Fisher Scientific, cat. 17504044), 1X N-2 supplement (Thermo Fisher Scientific, cat. 17502048), 50 ng/mL human EGF (Thermo Fisher Scientific, cat. PHG0311), and 10 microM Y-27632 dihydrochloride (Tocris Bioscience, cat. 1254). The K12877-001-R-J1-PDC line was cultured in 6I media, which includes all 6C/Colon 1B media plus 10 ng/mL human FGF-10 (PeproTech, cat. 100-26), 1 ng/mL human FGF-2 (PeproTech, cat. 100-18B), 1 µM prostaglandin E2 (Tocris Bioscience, cat. 2296), […] hydrocortisone (Sigma-Aldrich, cat. H4001), and […] bovine insulin (Sigma-Aldrich, cat. I6634). The K86415-001-R-J1-PDC line was cultured in 6D media, which includes all 6C/Colon 1B media components minus the L-WRN conditioned media. The 485176-168-R4-J1-PDC was cultured in PANC media, which includes all 6C/Colon 1B media plus 100 ng/mL human FGF-10 (PeproTech, cat. 100-26), 500 nM SB-431542 (Selleckchem, cat. S1067), and 10 nM gastrin (Tocris Bioscience, cat. 3006). […]

The record followed here is PubChem BioAssay AID2060890 (Molecular Pharmacology Branch, DTP, NCI, 2025).

A value given as a limit tells only on which side of the number the result lay.
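Note: spheroids exposed to agents for 7 days.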
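Throughout, for viability, T/C: 100% = DMSO vehicle wells.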

For the compound `CC(=O)OC12COC1CC(O)C1(C)C(=O)C(O)C3=C(C)C(OC(=O)C(O)C(NC(=O)OC(C)(C)C)c4ccccc4)CC(O)(C(OC(=O)c4ccccc4)C21)C3(C)C` (stereo unspecified) + C#Cc1c(F)ccc2cc(O)cc(-c3ncc4c(N5CC6CCC(C5)N6)nc(OCC56CCCN5CC(F)C6)nc4c3F)c12, the IC50 reads like this: (curve of first compound, second compound 0.0316 µM) less than 31.6 nM; (curve of first compound, second compound 0.1 µM) less than 31.6 nM; (curve of first compound, second compound 0.316 µM) less than 31.6 nM; (curve of first compound, second compound 1 µM) less than 31.6 nM; (curve of first compound, second compound 3.16 µM) less than 31.6 nM; (curve of first compound, second compound 10 µM) less than 31.6 nM. For the same compound, the viability, T/C (second compound 0.0316 µM, first compound 0.0316 µM) is 28.1%; the viability, T/C (second compound 0.0316 µM, first compound 0.1 µM) is 22.9%; the viability, T/C (second compound 0.0316 µM, first compound 0.316 µM) was 23.7%; the viability, T/C (second compound 0.0316 µM, first compound 1 µM) was 27.4%; the viability, T/C (second compound 0.0316 µM, first compound 3.16 µM) was 33.1%; the viability, T/C (second compound 0.0316 µM, first compound 10 µM) was 27.8%. In addition, the viability, T/C runs as follows: (second compound 0.1 µM, first compound 0.0316 µM) 23.5%; (second compound 0.1 µM, first compound 0.1 µM) 27.3%; (second compound 0.1 µM, first compound 0.316 µM) 24.9%; (second compound 0.1 µM, first compound 1 µM) 32%; (second compound 0.1 µM, first compound 3.16 µM) 32.9%; (second compound 0.1 µM, first compound 10 µM) 25.2%. In addition, the viability, T/C was 27.2% (second compound 0.316 µM, first compound 0.0316 µM); 22.6% (second compound 0.316 µM, first compound 0.1 µM); 27.7% (second compound 0.316 µM, first compound 0.316 µM); 26.2% (second compound 0.316 µM, first compound 1 µM); 24.8% (second compound 0.316 µM, first compound 3.16 µM); 22.9% (second compound 0.316 µM, first compound 10 µM). Also, the viability, T/C runs as follows: (second compound 1 µM, first compound 0.0316 µM) 25.5%; (second compound 1 µM, first compound 0.1 µM) 26.4%; (second compound 1 µM, first compound 0.316 µM) 24.6%; (second compound 1 µM, first compound 1 µM) 26.4%; (second compound 1 µM, first compound 3.16 µM) 22.7%; (second compound 1 µM, first compound 10 µM) 20.1%. The viability, T/C is 23.5% (second compound 3.16 µM, first compound 0.0316 µM); 22.8% (second compound 3.16 µM, first compound 0.1 µM); 23% (second compound 3.16 µM, first compound 0.316 µM); 18.9% (second compound 3.16 µM, first compound 1 µM); 16.3% (second compound 3.16 µM, first compound 3.16 µM); 16.1% (second compound 3.16 µM, first compound 10 µM). Also, the viability, T/C runs as follows: (second compound 10 µM, first compound 0.0316 µM) 17.2%; (second compound 10 µM, first compound 0.1 µM) 18.5%; (second compound 10 µM, first compound 0.316 µM) 16%; (second compound 10 µM, first compound 1 µM) 11.8%; (second compound 10 µM, first compound 3.16 µM) 8.84%; (second compound 10 µM, first compound 10 µM) 5.54%.

For `CCn1c(-c2cc(N3CCN(C)CC3)cnc2C(C)OC)c2c3cc(ccc31)-c1csc(n1)CC(NC(=O)C1CC1C)C(=O)N1CCCC(N1)C(=O)OCC(C)(C)C2` (stereo unspecified), the viability, T/C runs as follows: (compound 0.003 µM) 46.6% [middle of 8 runs]; (compound 0.00949 µM) 25.5% [middle of 8 runs]; (compound 0.03 µM) 14% [middle of 8 runs]; (compound 0.0949 µM) 11.6% [middle of 8 runs]; (compound 0.3 µM) 12.3% [middle of 8 runs]. Besides, the IC50 (compound alone, run of 08/26/2024) was 2.7 nM [middle of 8 runs].

Turning to `CC1(O)CCCC1n1c(=O)c(C(F)F)cc2cnc(NC3CCN(S(C)(=O)=O)CC3)nc21` (stereo unspecified), the viability, T/C by setting is: (compound 0.1 µM) 94.2% [middle of 4 runs]; (compound 0.316 µM) 86.8% [middle of 4 runs]; (compound 1 µM) 96% [middle of 4 runs].

In general, IC50 refers to the concentration at which inhibition is half-maximal. For orientation: viability, T/C means the result in the treated group divided by that in the control group, in per cent.
